Columns and labels:
[1] = system: NEO1A (RNA, aptamer) GGACUGGGCGAGAAGUUUAGUCC; experiment: ITC; conditions: for Kd: buffer IC (approximates intracellular salt; composition not shown), buffer IC, 25 °C
[2] = system: TSM (Thymidylate Synthase mRNA region) (RNA, mRNA element) CCCCCCCGCCGCGCCAUGCCUGUGGCCGGUCGG; conditions: column head extracted as (M), μ lost
[3] = system: NEO4A (RNA, aptamer) CUUUGCGAUGUCCUUUAAUGGUCCGCGAGG; experiment: ITC; conditions: buffer IC (approximates intracellular salt; composition not shown), 25 °C
[4] = system: TOB3A (RNA, aptamer) GGCACGAGGUUUAGCUACACUCGUGCC; conditions: column head extracted as (M), μ lost
[5] = system: 16S (16S rRNA Decoding region) (RNA, rRNA) GGCGUCACACCUUCGGGUGAAGUCGCC; conditions: column head extracted as (M), μ lost

| Structure (SMILES) | binding ([1]; 20 μM aptamer in cell, tetracycline concentration not stated) | Kd ([1]; N = 5) [µM] | Kd ([1]; N = 8) [µM] | Dissociation Constants [2] [M] | Kd ([3]; N = 3) [µM] | Dissociation Constants [4] [M] | Dissociation Constants [5] [M] | Kd ([1]; N = 3) [µM] | Kd ([3]; N = 2) [µM] |
| --- | --- | --- | --- | --- | --- | --- | --- | --- | --- |
| CN(C)[C@@H]1C(=O)C(C(N)=O)=C(O)[C@@]2(O)C(=O)C3=C(O)c4c(O)cccc4[C@@](C)(O)[C@H]3C[C@@H]12 | no | – | – | – | – | – | – | – | – |
| CN[C@@H]1[C@@H](O)[C@@H](O[C@@H]2[C@@H](O)[C@H](O[C@H]3O[C@H]([C@@H](C)O)[C@@H](O)[C@H](O)[C@H]3N)[C@@H](N)C[C@H]2N)OC[C@]1(C)O | – | 26 ± 9.3 | – | – | – | – | – | – | – |
| NC[C@H]1O[C@H](O[C@H]2[C@H](O)[C@@H](O[C@H]3O[C@H](CO)[C@@H](O)[C@H](N)[C@H]3O)[C@H](N)C[C@@H]2N)[C@H](N)C[C@@H]1O | – | – | – | 5.75e-06 ± 1.87e-06 | – | 2.4e-07 ± 1e-07 | 1.03e-05 ± 3.87e-06 | 4.8 ± 0.95 | – |
| NC[C@H]1O[C@H](O[C@H]2[C@H](O)[C@@H](O[C@H]3O[C@H](CO)[C@@H](O)[C@H](N)[C@H]3O)[C@H](N)C[C@@H]2N)[C@H](O)[C@@H](O)[C@@H]1O | – | – | – | 1.03e-05 ± 6.65e-06 | – | 7.38e-05 ± 3.96e-06 | 3.71e-05 ± 4.38e-06 | 43 ± 3.6 | 10.7 ± 4.2 |

Results, then the compound that gave them:

| binding ([1]; 20 μM aptamer in cell, tetracycline concentration not stated) | Kd ([1]; N = 5) [µM] | Kd ([1]; N = 8) [µM] | Dissociation Constants [2] [M] | Kd ([3]; N = 3) [µM] | Dissociation Constants [4] [M] | Dissociation Constants [5] [M] | Kd ([1]; N = 3) [µM] | Kd ([3]; N = 2) [µM] | Structure (SMILES) |
| --- | --- | --- | --- | --- | --- | --- | --- | --- | --- |
| – | – | 0.29 ± 0.054 | 8.8e-07 ± 1.1e-07 | 0.099 ± 0.036 | 2.2e-06 ± 5e-07 | 1.93e-06 ± 5.8e-07 | – | – | NC[C@@H]1O[C@H](O[C@H]2[C@@H](O)[C@H](O[C@@H]3[C@@H](O)[C@H](N)C[C@H](N)[C@H]3O[C@H]3O[C@H](CN)[C@@H](O)[C@H](O)[C@H]3N)O[C@@H]2CO)[C@H](N)[C@@H](O)[C@@H]1O |
| – | 1.4 ± 0.19 | – | 6.29e-06 ± 3.49e-06 | – | 1.72e-05 ± 1.96e-06 | 5.31e-06 ± 1.85e-06 | – | – | NC[C@@H]1O[C@H](O[C@H]2[C@@H](O)[C@H](O[C@@H]3[C@@H](O)[C@H](N)C[C@H](N)[C@H]3O[C@H]3O[C@H](CO)[C@@H](O)[C@H](O)[C@H]3N)O[C@@H]2CO)[C@H](N)[C@@H](O)[C@@H]1O |
| – | 0.75 ± 0.26 | – | 6.5e-06 ± 3.2e-06 | – | 2.43e-06 ± 1.37e-06 | 8.9e-06 ± 3.54e-06 | – | – | NC[C@H]1O[C@H](O[C@H]2[C@H](O)[C@@H](O[C@H]3O[C@H](CO)[C@@H](O)[C@H](N)[C@H]3O)[C@H](N)C[C@@H]2N)[C@H](N)[C@@H](O)[C@@H]1O |
